Experimental data reported in patent US11053204B2, “Pyrimidinyloxy benzene derivatives as herbicides” (FMC Corporation, priority 2015, dated 2021).

Columns and labels:
Assay type in all cases: in vivo
[1] = tested on: Italian ryegrass (Lolium multiflorum); assay: Test A preemergence, visual injury rating; details: for Plant response rating, Ryegrass, Italian: 31 g ai/ha, 0 to 100 scale, 0 no effect, 100 complete control; for Ryegrass, Italian plant response rating: 125 g ai/ha, 0 to 100 scale (0 no effect, 100 complete control)
Method in brief: (§1)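 Injury scores run from 0, no effect, to 100, complete control, judged by eye against untreated plants roughly 10 days after treatment. Chemicals carried a surfactant in a non-phytotoxic solvent and went onto loam–sand soil preemergence or onto one- to two-leaf seedlings postemergence.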

[2] = tested on: barnyardgrass (Echinochloa crus-galli); assay: Test A preemergence, visual injury rating; details: for Plant response rating, Barnyardgrass: 31 g ai/ha, 0 to 100 scale, 0 no effect, 100 complete control; for Barnyardgrass plant response rating: 125 g ai/ha, 0 to 100 scale (0 no effect, 100 complete control)
Method in brief: as §1

[3] = tested on: giant foxtail (Setaria faberii); assay: Test A preemergence, visual injury rating; details: for Plant response rating, Foxtail, Giant: 31 g ai/ha, 0 to 100 scale, 0 no effect, 100 complete control; for Foxtail, Giant plant response rating: 125 g ai/ha, 0 to 100 scale (0 no effect, 100 complete control)
Method in brief: as §1

kochia (Kochia scoparia) [4] = assay: Test A preemergence, visual injury rating; details: for Plant response rating, Kochia: 31 g ai/ha, 0 to 100 scale, 0 no effect, 100 complete control; for Kochia plant response rating: 125 g ai/ha, 0 to 100 scale (0 no effect, 100 complete control)
Method in brief: as §1

[5] = tested on: pigweed (Amaranthus retroflexus); assay: Test A preemergence, visual injury rating; details: for Plant response rating, Pigweed: 31 g ai/ha, 0 to 100 scale, 0 no effect, 100 complete control; for Pigweed plant response rating: 125 g ai/ha, 0 to 100 scale (0 no effect, 100 complete control)
Method in brief: as §1

[6] = tested on: ragweed (common ragweed, Ambrosia elatior); assay: Test A preemergence, visual injury rating; details: for Plant response rating, Ragweed: 31 g ai/ha, 0 to 100 scale, 0 no effect, 100 complete control; for Ragweed plant response rating: 125 g ai/ha, 0 to 100 scale (0 no effect, 100 complete control)
Method in brief: as §1

[7] = tested on: Italian ryegrass (Lolium multiflorum); assay: Test A postemergence, visual injury rating; details: 0 to 100 scale, 0 is no effect, 100 is complete control, approximately 10 days
Method in brief: as §1

[8] = tested on: barnyardgrass (Echinochloa crus-galli); assay: Test A postemergence, visual injury rating; details: 0 to 100 scale, 0 is no effect, 100 is complete control, approximately 10 days
Method in brief: as §1

[9] = tested on: blackgrass (Alopecurus myosuroides); assay: Test A postemergence, visual injury rating; details: 0 to 100 scale, 0 is no effect, 100 is complete control, approximately 10 days
Method in brief: as §1

corn (Zea mays) = assay: Test A postemergence, visual injury rating; details: 0 to 100 scale, 0 is no effect, 100 is complete control, approximately 10 days
Method in brief: as §1

[10] = tested on: galium (catchweed bedstraw, Galium aparine); assay: Test A postemergence, visual injury rating; details: 0 to 100 scale, 0 is no effect, 100 is complete control, approximately 10 days
Method in brief: as §1

[11] = tested on: giant foxtail (Setaria faberii); assay: Test A postemergence, visual injury rating; details: 0 to 100 scale, 0 is no effect, 100 is complete control, approximately 10 days
Method in brief: as §1

kochia (Kochia scoparia) [12] = assay: Test A postemergence, visual injury rating; details: 0 to 100 scale, 0 is no effect, 100 is complete control, approximately 10 days
Method in brief: as §1

[13] = tested on: pigweed (Amaranthus retroflexus); assay: Test A postemergence, visual injury rating; details: 0 to 100 scale, 0 is no effect, 100 is complete control, approximately 10 days
Method in brief: as §1

[14] = tested on: ragweed (common ragweed, Ambrosia elatior); assay: Test A postemergence, visual injury rating; details: 0 to 100 scale, 0 is no effect, 100 is complete control, approximately 10 days
Method in brief: as §1

[15] = tested on: wheat (Triticum aestivum); assay: Test A postemergence, visual injury rating; details: 0 to 100 scale, 0 is no effect, 100 is complete control, approximately 10 days
Method in brief: as §1

[16] = tested on: barnyardgrass (Echinochloa crus-galli); assay: Test B flooded paddy test, plant response rating; details: 250 g ai/ha; Flood; scale of 0 to 100 where 0 is no effect and 100 is complete control; 13 to 15 days
Method in brief: (§2)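 Visual injury ratings against untreated controls, taken 13 to 15 days after compound was added to paddy water standing 3 cm above the soil.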

[17] = tested on: ducksalad (Heteranthera limosa); assay: Test B flooded paddy test, plant response rating; details: 250 g ai/ha; Flood; scale of 0 to 100 where 0 is no effect and 100 is complete control; 13 to 15 days
Method in brief: as §2

rice (Oryza sativa) = assay: Test B flooded paddy test, plant response rating; details: 250 g ai/ha; Flood; scale of 0 to 100 where 0 is no effect and 100 is complete control; 13 to 15 days
Method in brief: as §2

[18] = tested on: sedge, umbrella (small-flower umbrella sedge, Cyperus difformis); assay: Test B flooded paddy test, plant response rating; details: 250 g ai/ha; Flood; scale of 0 to 100 where 0 is no effect and 100 is complete control; 13 to 15 days
Method in brief: as §2

SMILES | Plant response rating, Ryegrass, Italian [1] | Ryegrass, Italian plant response rating [1] | Plant response rating, Barnyardgrass [2] | Barnyardgrass plant response rating [2] | Plant response rating, Foxtail, Giant [3] | Foxtail, Giant plant response rating [3] | Plant response rating, Kochia (kochia (Kochia scoparia) [4]) | Kochia plant response rating (kochia (Kochia scoparia) [4]) | Plant response rating, Pigweed [5] | Pigweed plant response rating [5] | Plant response rating, Ragweed [6] | Ragweed plant response rating [6] | Ryegrass, Italian plant response rating ([7]; 31 g ai/ha) | Ryegrass, Italian plant response rating ([7]; 125 g ai/ha) | Barnyardgrass plant response rating ([8]; 31 g ai/ha) | Barnyardgrass plant response rating ([8]; 125 g ai/ha) | Blackgrass plant response rating ([9]; 31 g ai/ha) | Blackgrass plant response rating ([9]; 125 g ai/ha) | Corn plant response rating (corn (Zea mays); 31 g ai/ha) | Corn plant response rating (corn (Zea mays); 125 g ai/ha) | also measured
O=C(OCCC(F)(F)F)c1cc(Br)ccc1Oc1ncc(Cl)cn1 [Compound 94] | 0 | 0 | 0 | 0 | 0 | 0 | 0 | 0 | 0 | 0 | 0 | 0 | 0 | 0 | 0 | 0 | 0 | 0 | 0 | 0 | Galium plant response rating ([10]; 31 g ai/ha): 0; Galium plant response rating ([10]; 125 g ai/ha): 0; Foxtail, Giant plant response rating ([11]; 31 g ai/ha): 0; Foxtail, Giant plant response rating ([11]; 125 g ai/ha): 0; Kochia plant response rating (kochia (Kochia scoparia) [12]; 31 g ai/ha): 0; Kochia plant response rating (kochia (Kochia scoparia) [12]; 125 g ai/ha): 0; Pigweed plant response rating ([13]; 31 g ai/ha): 0; Pigweed plant response rating ([13]; 125 g ai/ha): 0; Ragweed plant response rating ([14]; 31 g ai/ha): 0; Ragweed plant response rating ([14]; 125 g ai/ha): 0; Wheat plant response rating ([15]; 31 g ai/ha): 0; Wheat plant response rating ([15]; 125 g ai/ha): 0; Plant response rating, Barnyardgrass [16]: 0; Plant response rating, Ducksalad [17]: 0; Plant response rating, Rice (rice (Oryza sativa)): 0; Plant response rating, Sedge, Umbrella [18]: 0
CCON=C(C)c1c(Br)cccc1Oc1ncc(Cl)cn1 [Compound 95] | 0 | 0 | 10 | 70 | 0 | 50 | 0 | 0 | 0 | 40 | 0 | 0 | 0 | 0 | 0 | 30 | 0 | 10 | 0 | 10 | Galium plant response rating ([10]; 31 g ai/ha): 10; Galium plant response rating ([10]; 125 g ai/ha): 40; Foxtail, Giant plant response rating ([11]; 31 g ai/ha): 0; Foxtail, Giant plant response rating ([11]; 125 g ai/ha): 60; Kochia plant response rating (kochia (Kochia scoparia) [12]; 31 g ai/ha): 0; Kochia plant response rating (kochia (Kochia scoparia) [12]; 125 g ai/ha): 0; Pigweed plant response rating ([13]; 31 g ai/ha): 10; Pigweed plant response rating ([13]; 125 g ai/ha): 20; Ragweed plant response rating ([14]; 31 g ai/ha): 0; Ragweed plant response rating ([14]; 125 g ai/ha): 0; Wheat plant response rating ([15]; 31 g ai/ha): 0; Wheat plant response rating ([15]; 125 g ai/ha): 0; Plant response rating, Barnyardgrass [16]: 0; Plant response rating, Ducksalad [17]: 30; Plant response rating, Rice (rice (Oryza sativa)): 0; Plant response rating, Sedge, Umbrella [18]: 0
CC(C)(C)CCOC(=O)c1c(Br)cccc1Oc1ncc(Cl)cn1 [Compound 96] | 0 | 0 | 0 | 0 | 0 | 0 | 0 | 0 | 0 | 0 | 0 | 0 | 0 | 0 | 0 | 10 | 0 | 10 | 0 | 20 | Galium plant response rating ([10]; 31 g ai/ha): 0; Galium plant response rating ([10]; 125 g ai/ha): 20; Foxtail, Giant plant response rating ([11]; 31 g ai/ha): 0; Foxtail, Giant plant response rating ([11]; 125 g ai/ha): 10; Kochia plant response rating (kochia (Kochia scoparia) [12]; 31 g ai/ha): 0; Kochia plant response rating (kochia (Kochia scoparia) [12]; 125 g ai/ha): 0; Pigweed plant response rating ([13]; 31 g ai/ha): 0; Pigweed plant response rating ([13]; 125 g ai/ha): 10; Ragweed plant response rating ([14]; 31 g ai/ha): 0; Ragweed plant response rating ([14]; 125 g ai/ha): 0; Wheat plant response rating ([15]; 31 g ai/ha): 0; Wheat plant response rating ([15]; 125 g ai/ha): 0; Plant response rating, Barnyardgrass [16]: 0; Plant response rating, Ducksalad [17]: 0; Plant response rating, Rice (rice (Oryza sativa)): 0; Plant response rating, Sedge, Umbrella [18]: 0
